Test results published in patent US11447638B2, “Acetalanthraquinone derivatives useful for cellular staining” (BIOSTATUS LIMITED, priority 2016, dated 2022).

Experiments:
Assay type in all cases: cell-based, human
A549 cells [1] = experiment: Pulse exposure to probes, time-lapse, reimaged after 72 h; conditions: 20 uM for 15 mins, washout, T=72 h
Protocol: (§1) In this regard, A549 cells were seeded in a 24 well coverslip bottomed-plate, cultured overnight in McCoys media for 24 or 48 hours. The plates were placed onto an inverted automated microscope, with the capacity for acquiring an image sequence of different wells (therefore exposure to different agent labelling). An Axiovert 100 microscope (Carl Zeiss, Welwyn Garden City, UK) was fitted with an incubator for 37° C./5% CO2 maintenance (Solent Scientific, Portsmouth, UK), and an ORCA-ER CCD camera (Hamamatsu, Reading, UK). Illumination was controlled by a shutter in front of the transmission lamp, and an x, y positioning stage with separate z-focus (Prior Scientific, Cambridge, UK) controlled multi-field acquisition. Image capture was controlled using Metamorph software.
Cells were exposed to a constant dose (0-5 μM) or a pulsed dose of 0 or 20 μM agent for 15 minutes followed by washout with warmed full media.
All images were collected with a ×10 (PH1) apochromat objective lens providing a field size of 500 times 500 microns. In this case a phase contrast image was collected every 30 minutes for 72 hours. Single cell growth and expansion can be tracked over time. The cells were harvested and run through a flow cytometry (typically a FACS Calibur 635 nm excitation/661/16 emission).
A549 cells were loaded with 20 uM BST-101, BST-109 or BST-110 for 15 mins followed by washout. Cells were then time-lapsed and reimaged after T=72 h, as before, […]

A549 cells [2] = experiment: Constant exposure to probes, time-lapse and flow cytometry after 72 h; conditions: within 24 hours
Protocol: Timelapse imaging, in accordance with Errington R J et al, Time-lapse microscopy approaches to track cell cycle and lineage progression at the single-cell level, Curr Protoc Cytom. 2013 April; Chapter 12: Unit 12.4, was carried out in relation to cells with exposure to probe compounds.
as §1
Cells were exposed to a constant dose (0-5 μM) or a pulsed dose of 0 or 20 μM agent for 15 minutes followed by washout with warmed full media. […]
A549 cell lines were monitored using time-lapse collection and lineage progression, in constant exposure to compounds of the invention. The effects on cells were also determined. […]

U-2 OS cells = experiment: Confocal laser scanning microscopy (CLSM) localisation analysis; conditions: 30 min incubation, Ex 637 nm, Em >665 nm; for subcellular localisation by CLSM: FIG. 4 and 5
How it was run: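 Live U-2 OS cells imaged by confocal microscopy after 30 min incubation with probe compound, excitation 637 nm, emission >665 nm, at several z depths with solution background removed. Sections merged into maximum projections; per-cell nucleus/cytoplasm fluorescence ratio used as index of DNA binding.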

Structure (SMILES): COC(CC(=O)NCCNc1ccc(NCCN(C)C)c2c1C(=O)c1ccccc1C2=O)OC [BST-110, N-(2-(4-(2-(dimethylamino)ethylamino)-9,10-dioxo-9,10-dihydroanthracen-1-ylamino)ethyl)-3,3-dimethoxypropanamide]
- cell division and signal retention / location after pulse exposure (A549 cells [1]): dividing, and signal now relocated in a non-nuclear compartment perinuclear
- localisation of probe during constant exposure (A549 cells [2]): predominantly in a membrane compartment of the cytoplasm
- specific feature of localisation by CLSM (U-2 OS cells): whole cell staining
- subcellular localisation by CLSM (U-2 OS cells): strong nuclear uptake and perinuclear staining, with possible ER accumulation

Structure (SMILES): COC(CNC(=O)CCNc1ccc(NCCN(C)C)c2c1C(=O)c1ccccc1C2=O)OC [BST-109, N-(2,2-Dimethoxyethyl)-3-(4-(2-(dimethylamino)ethylamino)-9,10-dioxo-9,10-dihydroanthracen-1-ylamino)propanamide]
- cell division and signal retention / location after pulse exposure (A549 cells [1]): dividing, and signal retained but now relocated in a non-nuclear compartment perinuclear
- localisation of probe during constant exposure (A549 cells [2]): predominantly in a membrane compartment of the cytoplasm
- specific feature of localisation by CLSM (U-2 OS cells): whole cell staining
- subcellular localisation by CLSM (U-2 OS cells): strong nuclear uptake and perinuclear staining, with possible ER accumulation
